#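 Values below derive from 48-hour exposures of cells grown in 96-well plates, with endpoints linearly interpolated between the two concentrations bracketing the appropriate inhibition level. At the GI50, growth is halved.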 Activity calls are given as the source filed them. No stated cut-off is given here; in the data, active = GI50 up to about 1.1 µM and inactive = higher.
# What was measured:
# Experiment in all cases: growth of human tumour cells (NCI), 48 h
# 786-0 = system: 786-0
# A498 = system: A498
# A549 = system: A549
# ACHN = system: ACHN
# BT-549 = system: BT-549
# CAKI-1 = system: CAKI-1
# CCRF-CEM = system: CCRF-CEM
# COLO 205 = system: COLO 205
# DU-145 = system: DU-145
# EKVX = system: EKVX
# HCC 2998 = system: HCC 2998
# HCT-116 = system: HCT-116
# HCT-15 = system: HCT-15
# HOP-62 = system: HOP-62
# HT-29 = system: HT-29
# Hs-578T = system: Hs-578T
# IGROV-1 = system: IGROV-1
# KM12 = system: KM12
# LOX IMVI = system: LOX IMVI
# M14 = system: M14
# MCF7 = system: MCF7
# MDA-MB-231 = system: MDA-MB-231
# MDA-MB-435 = system: MDA-MB-435
# MOLT-4 = system: MOLT-4
# Malme-3M = system: Malme-3M
# NCI-H226 = system: NCI-H226
# NCI-H23 = system: NCI-H23
# NCI-H460 = system: NCI-H460
# NCI-H522 = system: NCI-H522
# NCI/ADR-RES = system: NCI/ADR-RES
# OVCAR-3 = system: OVCAR-3
# OVCAR-4 = system: OVCAR-4
# OVCAR-5 = system: OVCAR-5
# OVCAR-8 = system: OVCAR-8
# PC-3 = system: PC-3
# RPMI-8226 = system: RPMI-8226
# RXF 393 = system: RXF 393
# SF-268 = system: SF-268
# SF-295 = system: SF-295
# SF-539 = system: SF-539
# SK-MEL-28 = system: SK-MEL-28
# SK-MEL-2 = system: SK-MEL-2
# SK-MEL-5 = system: SK-MEL-5
# SK-OV-3 = system: SK-OV-3
# SN12C = system: SN12C
# SNB-19 = system: SNB-19
# SNB-75 = system: SNB-75
# SR = system: SR
# SW-620 = system: SW-620
# T47D = system: T47D
# TK-10 = system: TK-10
# U-251 = system: U-251
# UACC-257 = system: UACC-257
# UACC-62 = system: UACC-62
# UO-31 = system: UO-31
# HL-60 = system: HL-60
# HOP-92 = system: HOP-92
# K562 = system: K562
# MDA-N = system: MDA-N
smiles,measurement,setting,value
O=[N+]([O-])C(C(Cl)=C(Cl)Cl)=C(n1cncn1)n1cncn1,GI50,786-0,18.6 µM (inactive)
same,GI50,A498,> 100 µM (inactive)
same,GI50,A549,> 22.1 µM (inactive)
same,GI50,ACHN,19.3 µM (inactive)
same,GI50,BT-549,18.7 µM (inactive)
same,GI50,CAKI-1,5.47 µM (inactive)
same,GI50,CCRF-CEM,3.37 µM (inactive)
same,GI50,COLO 205,13.7 µM (inactive)
same,GI50,DU-145,16.5 µM (inactive)
same,GI50,EKVX,24.3 µM (inactive)
same,GI50,HCC 2998,> 58.3 µM (inactive)
same,GI50,HCT-116,16.1 µM (inactive)
same,GI50,HCT-15,17.8 µM
same,GI50,HOP-62,> 75.2 µM (inactive)
same,GI50,HT-29,19 µM (inactive)
same,GI50,Hs-578T,27 µM (inactive)
same,GI50,IGROV-1,16.6 µM (inactive)
same,GI50,KM12,50.4 µM (inactive)
same,GI50,LOX IMVI,17.7 µM (inactive)
same,GI50,M14,31.4 µM (inactive)
same,GI50,MCF7,25.6 µM (inactive)
same,GI50,MDA-MB-231,19.5 µM (inactive)
same,GI50,MDA-MB-435,30.8 µM (inactive)
same,GI50,MOLT-4,> 33 µM (inactive)
same,GI50,Malme-3M,16.4 µM (inactive)
same,GI50,NCI-H226,> 100 µM (inactive)
same,GI50,NCI-H23,25.6 µM (inactive)
same,GI50,NCI-H460,> 75.5 µM (inactive)
same,GI50,NCI-H522,14 µM (inactive)
same,GI50,NCI/ADR-RES,25.1 µM (inactive)
same,GI50,OVCAR-3,18.2 µM (inactive)
same,GI50,OVCAR-4,24.4 µM (inactive)
same,GI50,OVCAR-5,15.6 µM (inactive)
same,GI50,OVCAR-8,19.2 µM (inactive)
same,GI50,PC-3,32.1 µM (inactive)
same,GI50,RPMI-8226,17.1 µM (inactive)
same,GI50,RXF 393,14.6 µM (inactive)
same,GI50,SF-268,17.1 µM (inactive)
same,GI50,SF-295,> 86.7 µM (inactive)
same,GI50,SF-539,19 µM (inactive)
same,GI50,SK-MEL-28,32.6 µM (inactive)
same,GI50,SK-MEL-2,> 100 µM (inactive)
same,GI50,SK-MEL-5,11.9 µM (inactive)
same,GI50,SK-OV-3,> 100 µM (inactive)
same,GI50,SN12C,12.4 µM (inactive)
same,GI50,SNB-19,> 100 µM (inactive)
same,GI50,SNB-75,> 44.2 µM (inactive)
same,GI50,SR,31.2 µM (inactive)
same,GI50,SW-620,18.8 µM (inactive)
same,GI50,T47D,19 µM (inactive)
same,GI50,TK-10,25.7 µM (inactive)
same,GI50,U-251,34.6 µM (inactive)
same,GI50,UACC-257,31.3 µM (inactive)
same,GI50,UACC-62,39.9 µM (inactive)
same,GI50,UO-31,18.5 µM (inactive)
CC[C@]1(Cc2ccc(OC)c(OC)c2)C=[N+]([O-])O[C@H](OC2CCCCC2c2ccccc2)[C@@H]1OC(C)=O (stereo partly specified),GI50,786-0,45.3 µM (inactive)
same,GI50,A498,> 100 µM (inactive)
same,GI50,A549,41.5 µM (inactive)
same,GI50,ACHN,30.5 µM (inactive)
same,GI50,BT-549,70.8 µM (inactive)
same,GI50,CAKI-1,21.2 µM (inactive)
same,GI50,CCRF-CEM,23.2 µM (inactive)
same,GI50,COLO 205,19.9 µM (inactive)
same,GI50,DU-145,49 µM (inactive)
same,GI50,EKVX,46.7 µM (inactive)
same,GI50,HCC 2998,43.5 µM (inactive)
same,GI50,HCT-116,34.1 µM (inactive)
same,GI50,HCT-15,37.2 µM
same,GI50,HL-60,18.1 µM (inactive)
same,GI50,HOP-62,64.6 µM (inactive)
same,GI50,HOP-92,57.7 µM (inactive)
same,GI50,HT-29,45.1 µM (inactive)
same,GI50,IGROV-1,39.4 µM (inactive)
same,GI50,K562,30.8 µM (inactive)
same,GI50,KM12,39.6 µM (inactive)
same,GI50,LOX IMVI,40.9 µM (inactive)
same,GI50,M14,45.3 µM (inactive)
same,GI50,MCF7,28.8 µM (inactive)
same,GI50,MDA-MB-231,75.3 µM (inactive)
same,GI50,MDA-MB-435,50.6 µM (inactive)
same,GI50,MDA-N,53.5 µM (inactive)
same,GI50,MOLT-4,17.3 µM (inactive)
same,GI50,Malme-3M,52.8 µM (inactive)
same,GI50,NCI-H226,32.5 µM (inactive)
same,GI50,NCI-H23,56.1 µM (inactive)
same,GI50,NCI-H460,37.5 µM (inactive)
same,GI50,NCI-H522,25.6 µM (inactive)
same,GI50,NCI/ADR-RES,41.8 µM (inactive)
same,GI50,OVCAR-3,33.4 µM (inactive)
same,GI50,OVCAR-4,33 µM (inactive)
same,GI50,OVCAR-5,> 100 µM (inactive)
same,GI50,OVCAR-8,50.6 µM (inactive)
same,GI50,PC-3,31.8 µM (inactive)
same,GI50,RPMI-8226,21.1 µM (inactive)
same,GI50,RXF 393,22.5 µM (inactive)
same,GI50,SF-295,37.9 µM (inactive)
same,GI50,SK-MEL-28,61.7 µM (inactive)
same,GI50,SK-MEL-2,46.1 µM (inactive)
same,GI50,SK-MEL-5,38.1 µM (inactive)
same,GI50,SK-OV-3,84.9 µM (inactive)
same,GI50,SN12C,36.6 µM (inactive)
same,GI50,SNB-19,92.5 µM (inactive)
same,GI50,SNB-75,32.2 µM (inactive)
same,GI50,SR,22.8 µM (inactive)
same,GI50,SW-620,40.2 µM (inactive)
same,GI50,T47D,24.7 µM (inactive)
same,GI50,TK-10,> 100 µM (inactive)
same,GI50,U-251,46.6 µM (inactive)
same,GI50,UACC-257,67.3 µM (inactive)
same,GI50,UACC-62,56.1 µM (inactive)
same,GI50,UO-31,41.2 µM (inactive)
